# Laboratory results published in patent US7432278B2, “Dicationic imidazo[1,2-a]pyridines and 5,6,7,8-tetrahydro-imidazo[1,2-a]pyridines as antiprotozoal agents” (The University of North Carolina at Chapel Hill, priority 2004, dated 2008).
# Structures can show the parent of a compound that is named as a salt. Where two headings read alike, the source gives them in different places.
# How the values were obtained:
# Poly-(dA.dT)2 = assay: DNA binding studies (ΔTm); conditions: DNA affinity
# Protocol: (§1) The DNA binding studies and both the in vitro and in vivo antiprotozoan studies were performed as described by Ismail. M. A., et al., J. Med. Chem., 46, 4761-4769 (2003), which is incorporated herein by reference in its entirety.
# Table 1 contains the results from the DNA binding studies for the new diamidines and the in vitro results for the compounds tested against T. b. r. and P. f. […] As a representative example of this class of compounds, compound 12 was evaluated and gave a ΔTm value of only 0.3.
# [1] = test system: Trypanosoma brucei rhodesiense; assay: In vitro anti-protozoan activity against T. b. r.; assay type: cell-based; conditions: for IC50: read-out: T.b.r. IC50; for in vitro activity (in words): against T. b. r. and P. f. (Table 1)
# Protocol: The DNA binding studies and both the in vitro and in vivo antiprotozoan studies were performed as described by Ismail. M. A., et al., J. Med. Chem., 46, 4761-4769 (2003), which is incorporated herein by reference in its entirety. […]
# Plasmodium falciparum = assay: In vitro anti-protozoan activity against P. f.; assay type: cell-based; conditions: concentration that gives 50% growth inhibition, average of duplicate determinations, K = 1,000
# Protocol: as §1
# [2] = test system: T. b. r. (STIB900 acute infection); assay: In vivo anti-trypanosomal activity in the STIB900 mouse model; conditions: for in vivo effectiveness on oral dosage (in words): STIB900 model; for Survival: average days of survival
# Protocol: as §1
# In this model five of the diamidines (8a, 8b, 7, 14b, 14a) give 4/4 cures and two, 13a and 14c, give 3/4 cures on intraperitoneal dosage. […] No attempts were made to optimize the formulation. […] One of ordinary skill in the art would appreciate that optimization of the formulation could improve the oral bioavailability of the prodrug.
# [3] = Trypanosoma brucei, RHODESIENSE, concentration that gives 50% growth inhibition, average of duplicate determinations, K = 1,000
# [4] = Mus musculus, 1440 h, po, 75 mg/kg, number of mice that survive and are parasite free for 60 days, read-out: Cures
# [5] = Mus musculus, 1440 h, ip, 20 mg/kg, number of mice that survive and are parasite free for 60 days, read-out: Cures (converted)
# [6] = concentration that gives 50% growth inhibition, average of duplicate determinations, K = 1,000
# [7] = Mus musculus, 1440 h, po, 100 mg/kg, number of mice that survive and are parasite free for 60 days, read-out: Cures (converted)
SMILES,ΔTm Poly-(dA.dT)2 (Poly-(dA.dT)2),"IC50 [1, 3]",IC50 (Plasmodium falciparum; Plasmodium falciparum),"responders at 20 mg/kg [2, 5]","Survival ([2]; ip, 20 mg/kg)",other results
"N=C(N)c1ccc(-c2cccc(-c3cn4c(n3)CCC(C(=N)N)C4)c2)cc1 (centres unmarked) [Compound 13b, 2-(4′-Amidinobiphenyl-3-yl)-5,6,7,8-tetrahydro-imidazo[1,2-a]pyridine-6-carboxamidine]",19.1 °C,226 nM,86 nM,,,
"CONC(=N)c1ccc(-c2ccc(-c3cn4cc(C(=N)NOC)ccc4n3)cc2)cc1 [Compound 12, N-Methoxy-2-[4′-(N-methoxyamidino)-biphenyl-4-yl]-imidazo[1,2-a]pyridine-6-carboxamidine]",0.3 °C,5300 nM,395 nM,,,"in vitro activity (in words) [1]: essentially no in vitro activity; responders at 75 mg/kg [2, 4]: 0%; in vivo effectiveness on oral dosage (in words) [2]: did not show high in vivo effectiveness; Survival ([2]; po, 75 mg/kg): 20 days"
"Cc1cc(C(=N)NO)cn2cc(-c3cccc(-c4ccc(C(=N)NO)cc4)c3)nc12 [Compound 11c, N-Hydroxy-2-[4′-(N-hydroxyamidino)-biphenyl-3-yl]-8-methyl-imidazo[1,2-a]pyridine-6-carboxamidine]",,,,,,melting point: 193 to 195 °C
"Cc1cc(C(=N)N)cn2cc(-c3cccc(-c4ccc(C(=N)N)cc4)c3)nc12 [Compound 14c, 2-(4′-Amidinobiphenyl-3-yl)-8-methyl-imidazo[1,2-a]pyridine-6-carboxamidine]",> 27 °C,49 nM,86 nM,75%,>50 days,
"N=C(N)c1ccc(-c2ccc(-c3cn4c(n3)CCC(C(=N)N)C4)o2)cc1 (centres unmarked) [Compound 7, 2-[5-(4-Amidinophenyl)-furan-2-yl]-5,6,7,8-tetrahydro-imidazo[1,2-a]pyridine-6-carboxamidine]",15.6 °C,52 nM,1200 nM,100%,>60 days,"responders at 5 mg/kg ([2]; Mus musculus, 1440 h, ip, 5 mg/kg, number of mice that survive and are parasite free for 60 days, read-out: Cures (converted)): 50%; Survival ([2]; ip, 5 mg/kg): >51 days"
N=C(N)c1ccc(-c2ccc3nc(-c4ccc(C(=N)N)cc4)cn3c2)cc1 [Compound 19],,,,,,"IC50 [1, 6]: 7 nM; IC50 (Plasmodium falciparum): 92 nM"
"N=C(NO)c1ccc(-c2ccc(-c3cn4cc(C(=N)NO)ccc4n3)o2)cc1 [Compound 5a, N-Hydroxy-2-{5-[4-(N-hydroxyamidino)-phenyl]-furan-2-yl}-imidazo[1,2-a]pyridine-6-carboxamidine]",,2200 nM,1600 nM,,,"in vitro activity (in words) [1]: essentially no in vitro activity; responders at 50 mg/kg ([2]; Mus musculus, 1440 h, po, 50 mg/kg, number of mice that survive and are parasite free for 60 days, read-out: Cures (converted)): 25%; in vivo effectiveness on oral dosage (in words) [2]: did not show high in vivo effectiveness; Survival ([2]; po, 50 mg/kg): >19.5 days"
"N=C(N)c1ccc(OCCCCCOc2ccc(C(=N)N)cc2)cc1 [Pentamidine(I), Pentamidine, reference compound]",12 °C,,,0%,40.8 days,
"N=C(N)c1ccc(-c2ccc(-c3cn4cc(C(=N)N)ccc4n3)o2)cc1 [Compound 8a, 2-[5-(4-Amidinophenyl)-furan-2-yl]-imidazo[1,2-a]pyridine-6-carboxamidine]",26.2 °C,63 nM,14 nM,100%,>60 days,
"N=C(N)c1ccc(-c2cccc(-c3cn4cc(C(=N)N)ccc4n3)c2)cc1 [Compound 14b, 2-(4′-Amidinobiphenyl-3-yl)-imidazo[1,2-a]pyridine-6-carboxamidine]",> 27 °C,22 nM,107 nM,100%,>60 days,
"CONC(=N)c1ccc(-c2ccc(-c3ccc(C(=N)NOC)cc3)o2)cc1 [Compound IIIa, 2,5-Bis[4-(methoxyamidino)phenyl]furan, reference compound]",25 °C,4.5 nM,15.5 nM,,,"responders at 100 mg/kg [2, 7]: 100%; Survival ([2]; po, 100 mg/kg): >60 days"
"N=C(NO)c1ccc(-c2cccc(-c3cn4cc(C(=N)NO)ccc4n3)c2)cc1 [Compound 11b, N-Hydroxy-2-[4′-(N-hydroxyamidino)-biphenyl-3-yl]-imidazo[1,2-a]pyridine-6-carboxamidine]",,,,,,melting point: 252 to 254 °C
"N=C(N)c1ccc(-c2ccc(-c3cn4c(n3)CCC(C(=N)N)C4)cc2)cc1 (centres unmarked) [Compound 13a, 2-(4′-Amidinobiphenyl-4-yl)-5,6,7,8-tetrahydro-imidazo[1,2-a]pyridine-6-carboxamidine]",21.3 °C,116 nM,14 nM,,,"responders at 10 mg/kg ([2]; Mus musculus, 1440 h, ip, 10 mg/kg, number of mice that survive and are parasite free for 60 days, read-out: Cures (converted)): 75%; Survival ([2]; ip, 10 mg/kg): >51.5 days"
"N=C(N)c1ccc(-c2cccc(-c3cn4c(n3)CCC(C(=N)N)C4)c2)cc1 (centres unmarked) (as salt: salt) [Compound 13b, 2-(4′-Amidinobiphenyl-3-yl)-5,6,7,8-tetrahydro-imidazo[1,2-a]pyridine-6-carboxamidine]",,,,,,melting point: 236 to 238 °C
"N=C(N)c1ccc(-c2ccc(-c3ccc(C(=N)N)cc3)o2)cc1 [Furamidine(IIa), 2,5-Bis(4-amidinophenyl)furan, reference compound]",,,,,52.5 days,"IC50 ([1]; Trypanosoma brucei, RHODESIENSE): 14600 nM; responders at 20 mg/kg ([2]; Mus musculus, ip, 1440 h, read-out: Cures): 0%"
"CONC(=N)c1ccc(-c2ccc(-c3cn4cc(C(=N)NOC)ccc4n3)o2)cc1 [Compound 6, N-Methoxy-2-{5-[4-(N-methoxyamidino)-phenyl]-furan-2-yl}-imidazo[1,2-a]pyridine-6-carboxamidine]",,3000 nM,2800 nM,,,"in vitro activity (in words) [1]: essentially no in vitro activity; responders at 100 mg/kg [2, 7]: 50%; in vivo effectiveness on oral dosage (in words) [2]: did not show high in vivo effectiveness; Survival ([2]; po, 100 mg/kg): >39.5 days"
"N=C(NO)c1ccc(-c2ccc(-c3cn4cc(C(=N)NO)ccc4n3)cc2)cc1 [Compound 11a, N-Hydroxy-2-[4′-(N-hydroxyamidino)-biphenyl-4-yl]-imidazo[1,2-a]pyridine-6-carboxamidine]",,> 166000 nM,521 nM,,,"in vitro activity (in words) [1]: essentially no in vitro activity; responders at 75 mg/kg [2, 4]: 0%; in vivo effectiveness on oral dosage (in words) [2]: did not show high in vivo effectiveness; Survival ([2]; po, 75 mg/kg): 28 days"
"Cc1cc(C(=N)N)cn2cc(-c3ccc(-c4ccc(C(=N)N)cc4)o3)nc12 [Compound 8b, 2-[5-(4-Amidinophenyl)-furan-2-yl]-8-methyl-imidazo[1,2-a]pyridine-6-carboxamidine]",> 27 °C,6 nM,88 nM,100%,>60 days,
N=C(N)c1ccc(-c2cn3c(n2)CCC(c2ccc(C(=N)N)cc2)C3)cc1 (centres unmarked) [Compound 18],,,,,,"IC50 [1, 6]: 14 nM; IC50 (Plasmodium falciparum): 85 nM"
"N=C(N)c1ccc(-c2ccc(-c3cn4cc(C(=N)N)ccc4n3)cc2)cc1 [Compound 14a, 2-(4′-Amidinobiphenyl-4-yl)-imidazo[1,2-a]pyridine-6-carboxamidine]",24.2 °C,1 nM,43 nM,100%,>60 days,
